Publication PMC7721913 (The Journal of Cell Biology, 2020)
Where two headings read alike, the source gives them in different places. Ends that are not written are not given here.

Columns and labels:
[1] = target: KLC1 TPR1-6 fragment (KLC1: 205-501) (Homo sapiens, UniProt Q07866); assay: ITC binding of SFPQ peptides to KLC1
KLC1 TPR1-6 = settings: cited from earlier work
SFPQ = assay: Coimmunoprecipitation of endogenous SFPQ from DRG lysate, Western blot; format: binding, rat; settings: DRG sensory neuron lysate

KLC1 TPR1-6 fragment (KLC1: 205-501), sequence (Q07866 205-501): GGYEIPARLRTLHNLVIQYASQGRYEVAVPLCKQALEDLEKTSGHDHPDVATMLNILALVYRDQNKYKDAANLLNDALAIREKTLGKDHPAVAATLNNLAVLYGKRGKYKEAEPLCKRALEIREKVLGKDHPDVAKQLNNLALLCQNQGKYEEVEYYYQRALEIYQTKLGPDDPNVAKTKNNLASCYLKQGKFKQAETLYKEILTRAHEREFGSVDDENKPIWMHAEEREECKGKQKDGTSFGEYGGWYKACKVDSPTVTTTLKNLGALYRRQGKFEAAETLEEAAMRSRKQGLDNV

With ESEMEDAAHEHQANLLR [SFPQ^Y527A peptide] the “binding to KLC1 (in words)” value ([1]; ITC, 25°C, pH 7.5) was “did not bind to KLC1”, the ΔS ([1]; ITC, 20 mM Hepes (pH 7.5), 150 mM NaCl, 0.5 mM TCEP, 2% DMSO, 25°C) was “No binding” and the ΔH ([1]; ITC, 20 mM Hepes (pH 7.5), 150 mM NaCl, 0.5 mM TCEP, 2% DMSO, 25°C, single-site model) was “No binding”.
Work on ESEMEDAYHEHQANLLR [WT SFPQ peptide] yielded a Kd [1] of 3.83 ± 2.31 µM.
For EYTCPTEDIYLE [JIP1: EYTCPTEDIYLE], the Kd (KLC1 TPR1-6; KLC1: 228-495, ref Zhu et al., 2012) is given as 9.4 ± 5.85 µM.
With “KIF1A: axonal transport motor protein in DRGs” the “coimmunoprecipitation with SFPQ (in words)” value (SFPQ) was “none of these kinesins significantly coimmunoprecipitates with SFPQ”.
With “KIF3A: kinesin transporting RNA granules in neurons” the “coimmunoprecipitation with SFPQ (in words)” value (SFPQ) was “none of these kinesins significantly coimmunoprecipitates with SFPQ”.
In the case of TCPTEDIYLE [JIP1: TCPTEDIYLE], the Kd (KLC1 TPR1-6; KLC1: 205-502, ref Nguyen et al., 2018) is given as 5 ± 0.5 µM.
